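Each compound was tested at five concentrations against cells in 96-well plates for 48 hours. GI50 = concentration required for 50% inhibition of growth.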 The source made the active and inactive calls. Rule as the data show it: active = GI50 up to about 1.1 µM and inactive = higher.
Tests used:
Experiment in all cases: inhibition of tumour cell growth, NCI panel, 48 h
[1] = tested on: A498
[2] = tested on: BT-549
[3] = tested on: CAKI-1
[4] = tested on: CCRF-CEM
[5] = tested on: DU-145
[6] = tested on: HCC 2998
[7] = tested on: HOP-92
[8] = tested on: Hs-578T
[9] = tested on: Malme-3M
[10] = tested on: NCI-H226
[11] = tested on: NCI-H460
[12] = tested on: NCI/ADR-RES
[13] = tested on: OVCAR-3
[14] = tested on: OVCAR-4
[15] = tested on: SF-268
[16] = tested on: SF-539
[17] = tested on: SNB-75
[18] = tested on: SR
[19] = tested on: TK-10
[20] = tested on: UO-31

SMILES	GI50 [1]	GI50 [2]	GI50 [3]	GI50 [4]	GI50 [5]	GI50 [6]	GI50 [7]	GI50 [8]	GI50 [9]	GI50 [10]	GI50 [11]	GI50 [12]	GI50 [13]	GI50 [14]	GI50 [15]	GI50 [16]	GI50 [17]	GI50 [18]	GI50 [19]	GI50 [20]
NS(=O)(=O)c1c(O)c2ccccc2oc1=O	> 100 µM (inactive)	> 100 µM (inactive)	> 100 µM (inactive)	> 100 µM (inactive)	> 100 µM (inactive)	> 100 µM (inactive)	> 100 µM (inactive)	> 100 µM (inactive)	> 100 µM (inactive)	> 100 µM (inactive)	> 100 µM (inactive)	> 100 µM (inactive)	> 100 µM (inactive)	> 100 µM (inactive)	> 100 µM (inactive)	> 100 µM (inactive)	> 100 µM (inactive)	> 100 µM (inactive)	> 100 µM (inactive)	> 100 µM (inactive)
O=C1/C(=C\c2cccc(Oc3ccccc3)c2)SC(c2ccccc2)N1c1ccc(Cl)cc1 (stereo not given)	> 95.9 µM (inactive)	28.2 µM (inactive)	> 60.3 µM (inactive)	5.89 µM (inactive)	65.8 µM (inactive)	87.5 µM (inactive)	61.1 µM (inactive)	> 67.9 µM (inactive)	45.6 µM (inactive)	> 100 µM (inactive)	24.5 µM (inactive)	21.4 µM (inactive)	41.4 µM (inactive)	17.4 µM (inactive)	18.2 µM (inactive)	21.3 µM (inactive)	90.4 µM (inactive)	3.91 µM (inactive)	> 64.9 µM (inactive)	16 µM (inactive)
CN1C(=O)C23CC4=CC=CC(O)C4N2C(=O)C1(CO)SS3 (stereo not given)	0.234 µM (active)	0.291 µM (active)	0.308 µM (active)	0.0205 µM (active)	0.157 µM (active)	0.155 µM (active)	0.165 µM (active)	0.39 µM (active)	0.223 µM (active)	0.0891 µM (active)	0.0948 µM (active)	0.0224 µM (active)	0.199 µM (active)	0.223 µM (active)	0.207 µM (active)	0.0204 µM (active)	0.21 µM (active)	0.0291 µM (active)	0.179 µM (active)	0.565 µM (active)
Cc1ccc([N+](=O)[O-])cc1S(=O)(=O)Nc1ccc(C(=O)/C=C/c2cccs2)cc1	15.3 µM (inactive)	18.7 µM (inactive)	16.2 µM (inactive)	0.271 µM (active)	23.3 µM (inactive)	18.5 µM (inactive)	27.9 µM (inactive)	36.3 µM (inactive)	27.4 µM (inactive)	22.5 µM (inactive)	51.5 µM (inactive)	24.9 µM (inactive)	20.8 µM (inactive)	22.5 µM (inactive)	32 µM (inactive)	27.2 µM (inactive)	19.3 µM (inactive)	18.9 µM (inactive)	56.2 µM (inactive)	20 µM (inactive)
COc1ccc(-c2nc3ccc(C)cc3o2)c(OC)c1	18.6 µM (inactive)	23.7 µM (inactive)	29.8 µM (inactive)	24.1 µM (inactive)	25.8 µM (inactive)	14.9 µM (inactive)	25.4 µM (inactive)	25.8 µM (inactive)	21.2 µM (inactive)	30 µM (inactive)	2.93 µM (inactive)	29.4 µM (inactive)	15.7 µM (inactive)	26.9 µM (inactive)	28.6 µM (inactive)	20 µM (inactive)	16.7 µM (inactive)	14.3 µM (inactive)	27.4 µM (inactive)	24 µM (inactive)
